According to patent US12173026B2, “PRMT5 inhibitors” (Merck Sharp & Dohme LLC, priority 2018, dated 2024):
pEC50: −log10 of the molar value.

What was measured:
[1] = biological target: T1, PRMT5-MEP50 enzyme complex (Homo sapiens, UniProt O14744); test: PRMT5-MEP50 Enzyme Methylation Assay; format: biochemical; settings: one EC50 shown: 4 parameters single site sigmoidal model; two shown: first EC50 of 7 parameters biphasic model; 1.0 nM PRMT5-MEP50, 75 nM biotinylated H4R3(Me1) peptide, 15 μM SAM; read-out: Enzyme Methylation Assay (EC50 or EC50 1)
T1 construct: Full-length (FL)-PRMT5-MEP50 enzyme complex; made in house; host or cells: baculovirus-transfected Sf21 cells
T1 sequence (O14744 whole entry): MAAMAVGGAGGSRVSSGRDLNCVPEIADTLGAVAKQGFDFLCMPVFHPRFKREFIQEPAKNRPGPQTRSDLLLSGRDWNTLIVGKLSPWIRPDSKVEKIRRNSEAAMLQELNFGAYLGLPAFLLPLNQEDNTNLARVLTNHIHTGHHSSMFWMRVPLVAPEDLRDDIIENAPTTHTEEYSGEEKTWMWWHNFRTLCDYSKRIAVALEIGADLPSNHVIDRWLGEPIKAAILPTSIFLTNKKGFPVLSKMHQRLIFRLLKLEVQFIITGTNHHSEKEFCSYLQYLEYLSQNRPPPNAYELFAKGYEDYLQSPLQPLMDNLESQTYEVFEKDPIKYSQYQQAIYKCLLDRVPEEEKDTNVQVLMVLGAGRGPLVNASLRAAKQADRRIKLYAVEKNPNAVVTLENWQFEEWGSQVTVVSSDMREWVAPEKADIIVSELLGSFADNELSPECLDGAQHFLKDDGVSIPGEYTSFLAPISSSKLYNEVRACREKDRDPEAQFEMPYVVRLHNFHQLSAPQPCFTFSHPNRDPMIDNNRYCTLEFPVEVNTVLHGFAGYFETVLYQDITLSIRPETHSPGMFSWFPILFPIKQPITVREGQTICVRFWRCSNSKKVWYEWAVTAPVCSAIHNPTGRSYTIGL
T1 sequence (Q9BQA1 whole entry partner): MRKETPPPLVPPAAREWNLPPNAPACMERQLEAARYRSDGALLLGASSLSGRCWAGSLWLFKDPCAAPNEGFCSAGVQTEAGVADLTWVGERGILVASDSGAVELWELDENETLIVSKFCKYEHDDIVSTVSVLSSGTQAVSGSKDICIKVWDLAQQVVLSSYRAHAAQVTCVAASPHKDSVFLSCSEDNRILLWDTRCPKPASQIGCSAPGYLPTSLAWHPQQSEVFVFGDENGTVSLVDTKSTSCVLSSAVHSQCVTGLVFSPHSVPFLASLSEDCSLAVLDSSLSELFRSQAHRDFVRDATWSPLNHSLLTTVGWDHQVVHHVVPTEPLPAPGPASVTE
Procedure: PRMT5-MEP50 Enzyme Methylation Assay
PRMT5-MEP50 biochemical assay is a direct measurement of the methylation activity of the enzyme complex on a short peptide substrate derived from the N-terminus of […]. Methylation experiment is performed with recombinant PRMT5-MEP50 protein complex. The assessment of inhibitory effect of small molecules is measured by the effectiveness of the compounds to inhibit this reaction (EC50).
In this assay, the potency (EC50) of each compound was determined from a twenty-point (1:2 serial dilution; top compound concentration of 100000 nM) titration curve using the following outlined procedure. To each well of a white ProxiPlus 384 well-plate, 100 nL of compound (1% DMSO in final assay volume of 10 μL) was dispensed, followed by the addition of 8 μL of 1× assay buffer (50 mM Bicine pH 8.0, 1 mM DTT, 0.004% Tween20, 0.01% BSA) containing 1.25 nM of Full-length (FL)-PRMT5-MEP50 enzyme complex (recombinant proteins from baculovirus-transfected Sf21 cells: FL-PRMT5; MW=[…] and FL-MEP50; MW=38614) and 1 μL of 150 μM S-(5′-Adenosyl)-L-Methionine Chloride (SAM). Plates were sealed and placed in a 37° C. humidified chamber for a 60 minutes pre-incubation with compound. Subsequently, each reaction was initiated by the addition of 1 μL 1× assay buffer containing 750 nM biotinylated H4R3(Me1) peptide. The final reaction in each well of 10 μL consists of 1.0 nM PRMT5-MEP50, 75 nM biotinylated-peptide, and 15 μM SAM. Methylation reactions proceeded for 150 minutes in a sealed plate at 37° C. Reactions were immediately quenched by the addition of 1 μL of 5% formic acid. Plates were then frozen and shipped to SAMDI™ Tech Inc. to determine the percent conversion from H4R3(Me1) to H4R3(Me2). Dose-response curves were generated by plotting percent effect (% product conversion; Y-axis) vs. Log 10 compound concentrations (X-axis). EC50 values were determined by non-linear regression according to models for either sigmoidal (4 parameters) or biphasic (7 parameters) dose-response curves.

[2] = tested on: symmetric dimethylation of arginine (SDMA) of PRMT5 substrates in MCF-7 cells; test: PRMT5 Cell Target Engagement (TE) Assay; format: cell-based; settings: MCF-7 cells treated for 3 days; nuclear SDMA by high content imaging; top concentration 10000 nM
Outline: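 MCF-7 cells treated 3 days at 37 °C with 10-point 1:3 titration from 10000 nM top. Fixed cells stained with anti-SDMA antibody plus Alexa488 secondary and Hoechst; nuclear fluorescence quantified by high-content imaging versus DMSO wells. EC50 from 4-parameter fit of percent fluorescence vs log concentration.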

Row | pEC50 [1] | pEC50 [2] | SMILES
1 | 9.52 | 9.15 | Nc1nc2cc(C[C@@H]3CC[C@@]4(O)[C@@H]3O[C@@H](n3cc(C5CC5)c5c(N)ncnc53)[C@@H]4O)ccc2cc1F [Example 50]
2 | 9.52 | 8.70 | Nc1nc2cc(CCC3(CF)C[C@@H](n4ccc5c(N)ncnc54)[C@H](O)[C@@H]3O)ccc2cc1Br (stereo partly drawn) [Example 102]
3 | 8.54 | 7.28 | Nc1nc2cc(O[C@H]3CC[C@@]4(O)[C@@H]3O[C@@H](n3ccc5c(C(F)F)ncnc53)[C@@H]4O)ccc2cc1Br [Example 79, (2R,3R,3aS,6S,6aR)-6-((2-amino-3-bromoquinolin-7-yl)oxy)-2-(4-(difluoromethyl)-7H-pyrrolo[2,3-d]pyrimidin-7-yl)hexabodro-3aH-cyclopenta[b]furan-3,3a-diol]
